Assay results taken from article PMC3423084 (Circulation, 2012).
Blank lines part the entries; values can stand above or below the molecule they belong to.

How the values were obtained:
guinea pigs = assay: Guinea pig carotid artery FeCl3 injury arterial thrombosis model; format: in vivo; settings: clopidogrel 1 mg/kg PO 4 h prior alone, 90 min period, n=5
PAR1 = biological target: T1, PAR1 (Cavia porcellus, UniProt A0A286XH07); assay: Activation of guinea pig platelets; format: cell-based
T1 sequence (A0A286XH07 24-426): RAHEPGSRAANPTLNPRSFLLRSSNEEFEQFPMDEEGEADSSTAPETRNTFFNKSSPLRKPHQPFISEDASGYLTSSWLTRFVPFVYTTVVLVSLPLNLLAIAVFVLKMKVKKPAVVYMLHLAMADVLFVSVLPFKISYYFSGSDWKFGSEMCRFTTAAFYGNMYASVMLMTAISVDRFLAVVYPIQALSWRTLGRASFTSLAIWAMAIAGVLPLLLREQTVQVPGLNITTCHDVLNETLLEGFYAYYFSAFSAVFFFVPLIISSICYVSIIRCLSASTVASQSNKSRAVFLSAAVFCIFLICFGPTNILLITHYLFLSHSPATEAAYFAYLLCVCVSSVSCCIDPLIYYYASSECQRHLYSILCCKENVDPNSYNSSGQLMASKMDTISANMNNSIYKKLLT

[1] = human, ref Kosoglou, 2012 #2596, cited from earlier work

SMILES: COC(=O)[C@H](c1ccccc1Cl)N1CCc2sccc2C1 [clopidogrel]
- Protection against arterial occlusion when used alone (guinea pigs): non-significant protection

- EC50 (PAR1): 2.5 µM
SMILES: CC(C)C[C@H](NC(=O)[C@H](CC(C)C)NC(=O)[C@H](Cc1ccccc1)NC(=O)[C@@H](N)CO)C(=O)N[C@@H](CCCN=C(N)N)C(=O)N[C@@H](CC(N)=O)C(=O)O [SFLLRN]

SMILES: CCOC(=O)N[C@@H]1CC[C@@H]2[C@@H](C1)C[C@H]1C(=O)O[C@H](C)[C@H]1[C@H]2/C=C/c1ccc(-c2cccc(F)c2)cn1 [vorapaxar]
- Pharmacodynamic (PD) half life / duration of inhibition of platelet function ([1]; single loading dose): up to 3 weeks
- Plasma half-life [1]: 120 to 264 h
